Results reported in patent publication US9521847B2, “Synergistic weed control from applications of pyridine carboxylic acid herbicides and synthetic auxin herbicides and/or auxin transport inhibitors” (Dow AgroSciences LLC, priority 2014, dated 2016).
Read-outs that look alike come from different tables or passages of the source.

Legend:
[1] = tested on: nutsedge (Cyperus esculentus, CYPES); assay: Greenhouse postemergence trial, % visual injury; format: in vivo; conditions: for pest or weed control at 5 g/ha: Cyperus, post-emergence, 5 g ae/ha alone, 20-22 d, read-out: % visual injury Obs
[2] = tested on: wild buckwheat (Polygonum convolvulus, POLCO); assay: Greenhouse postemergence trial, % visual injury; format: in vivo; conditions: 5 g ae/ha alone; 20-22 d
[3] = tested on: grain sorghum (Sorghum vulgare, SORVU); assay: Greenhouse postemergence trial, % visual injury; format: in vivo; conditions: for % visual injury Obs: 5 g ae/ha alone, 20-22 d
[4] = tested on: common chickweed (Stellaria media, STEME); assay: Greenhouse postemergence trial, % visual injury; format: in vivo; conditions: 5 g ae/ha alone; 20-22 d
[5] = tested on: Canadian thistle (CIRAR, Cirsium arvense); assay: Greenhouse postemergence trial, % visual injury; conditions: for pest or weed control at 5 g/ha: Cirsium arvense, post-emergence;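 on all read-outs here: plants sprayed at second to third true leaf stage, injury scored visually 20-22 d later against solvent-blank sprayed controls, 0 meaning no injury and 100 complete kill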
[6] = tested on: spring rape (Brassica napus, BRSNN); assay: Greenhouse postemergence trial, % visual injury; conditions: Brassica napus, post-emergence
[7] = tested on: poinsettia (Euphorbia heterophylla, EPHHL); assay: Greenhouse postemergence trial, % visual injury; conditions: Euphorbia heterophylla, post-emergence; for pest or weed control at 5 g/ha: read-out: % visual injury Obs, 5 g ae/ha alone, 20-22 d
[8] = tested on: wild pansy (Viola tricolor, VIOTR); assay: Greenhouse postemergence trial, % visual injury; conditions: for pest or weed control at 5 g/ha: Viola tricolor, post-emergence, read-out: % visual injury Obs
[9] = tested on: winter wheat (TRZAW); assay: Greenhouse postemergence trial, crop phytotoxicity (% visual injury); conditions: for % visual injury Obs: crop, 5 g ae/ha alone, 20-22 d
[10] = tested on: common lambsquarters (CHEAL, Chenopodium album L.); assay: Greenhouse postemergence trial, % visual injury; format: in vivo; conditions: Chenopodium album, post-emergence; 5 g ae/ha alone; 20-22 d; read-out: % visual injury Obs
[11] = tested on: velvetleaf (Abutilon theophrasti, ABUTH); assay: Greenhouse postemergence trial, % visual injury; format: in vivo; conditions: for % visual injury Obs: 5 g ae/ha alone, 20-22 d
[12] = tested on: maize (ZEAMX); assay: Greenhouse postemergence trial, crop phytotoxicity (% visual injury); conditions: for % visual injury Obs: crop, 5 g ae/ha alone, 20-22 d
[13] = tested on: sunflower (Helianthus annus, HELAN); assay: Greenhouse postemergence trial, % visual injury; format: in vivo; conditions: 5 g ae/ha alone; 20-22 d
[14] = tested on: winter wheat (TRZAW); conditions: Triticum aestivum (winter wheat), in vivo
[15] = tested on: kochia (KCHSC, Kochia scoparia); assay: Greenhouse postemergence trial, % visual injury; format: in vivo; conditions: KCHSC
Protocol: Following the protocol in Example 1, compound 1 and compound 2 were combined with 2,4 D EHE (EC) and applied to kochia (KCHSC, Kochia scoparia) and the phytotoxicity of the herbicidal compositions was measured.
Following the protocol in Example 1, compound 1 (EC) and Compound 2 (SC) were combined with diflufenzopyr and applied to kochia (Kochia scoparia, KCHSC) and the phytotoxicity of the herbicidal composition was measured.

[16] = tested on: ivyleaf morningglory (Ipomoea hederacea, IPOHE); assay: Greenhouse postemergence trial, % visual injury; conditions: Ipomoea, post-emergence, read-out: % visual injury, Obs, IPOHE, 10 g ae/ha
[17] = tested on: common rice (ORYSA); assay: Greenhouse postemergence trial, crop phytotoxicity (% visual injury); conditions: ORYSA, 10 g ae/ha
[18] = read-out: % visual injury (Obs)

Row | SMILES | pest or weed control at 5 g/ha [1] [%] | % visual injury Obs [2] [%] | % visual injury Obs [3] [%] | pest or weed control at 5 g/ha ([5]; read-out: % visual injury Obs) [%] | plant injury at 5 g/ha ([6]; read-out: % visual injury Obs) [%] | pest or weed control at 5 g/ha [7] [%] | pest or weed control at 5 g/ha [8] [%] | % visual injury Obs [9] [%] | pest or weed control at 5 g/ha [10] [%] | % visual injury Obs [11] [%] | % visual injury Obs [12] [%] | further results
1 | COc1c(N)nc(-c2ccc3sccc3c2)nc1C(=O)O [compound 11] | 0 | 10 | 5 | 5 | 10 | 25 | 10 | 10 | – | – | – | % visual injury Obs [4]: 40%
2 | COC(=O)c1nc(-c2ccc3ccoc3c2F)nc(N)c1OC [compound 12] | 5 | – | 0 | 10 | 50 | 35 | 18 | 0 | 84 | 10 | 0 | –
3 | COC(=O)c1nc(-c2ccc3cc[nH]c3c2F)c(F)c(/N=C/N(C)C)c1Cl [compound 13] | 0 | 25 | – | 10 | – | 75 | 25 | – | 60 | 0 | – | % visual injury Obs [4]: 50%
4 | Nc1c(F)c(-c2cc(F)c3[nH]ccc3c2)nc(C(=O)O)c1Cl [compound 14] | – | – | 0 | 5 | 10 | 20 | 10 | 0 | 15 | 0 | 0 | % visual injury Obs [13]: 10%
5 | C=C(F)c1c(C(=O)O)nc(-c2ccc3cc[nH]c3c2F)c(F)c1N [compound 15] | 25 | 30 | 0 | 15 | – | 73 | 33 | 5 | – | 30 | 0 | % visual injury Obs [13]: 90%
6 | Nc1c(F)c(-c2ccc3cc[nH]c3c2)nc(C(=O)O)c1Cl [compound 16] | – | – | – | – | – | – | – | – | – | – | – | % visual injury (Obs) ([1]; compound 16 5 g ae/ha): 25%; % visual injury (Obs) ([3]; compound 16 5 g ae/ha): 13%; % visual injury (Obs) [14]: 0%; pest or weed control at 5 g/ha [5, 18]: 20%; plant injury at 5 g/ha [6, 18]: 60%; % visual injury (Obs) ([8]; compound 16 5 g ae/ha): 25%
7 | C/C(=N\NC(=O)Nc1cc(F)cc(F)c1)c1ncccc1C(=O)O [diflufenzopyr] | – | – | – | – | – | – | – | – | – | – | – | % visual injury, Obs. ([15]; diflufenzopyr 3.5 g ae/ha, Table 60): 0%; % visual injury, Obs. ([15]; diflufenzopyr 3.5 g ae/ha, Table 61): 0%; % visual injury, Obs. ([15]; diflufenzopyr 7 g ae/ha, Table 60): 0%; % visual injury, Obs. ([15]; diflufenzopyr 7 g ae/ha, Table 61): 0%
8 | Nc1c(Cl)c(Cl)nc(C(=O)O)c1Cl [picloram-potassium, reference compound] | – | – | – | – | – | – | – | – | – | – | – | pest or weed control at 10 g/ha ([15]; Bassia scoparia, post-emergence, 10 g ae/ha, read-out: % visual injury, Obs): 0%; pest or weed control at 10 g/ha ([11]; Abutilon theophrasti, post-emergence, ABUTH, 10 g ae/ha, read-out: % visual injury, Obs): 35%; % visual injury, Obs ([1]; CYPES, 10 g ae/ha): 0%; % visual injury, Obs ([3]; SORVU, 10 g ae/ha): 0%; % visual injury, Obs ([5]; CIRAR, 10 g ae/ha): 60%; plant injury at 10 g/ha ([6]; read-out: % visual injury, Obs): 20%; pest or weed control at 10 g/ha ([7]; read-out: % visual injury, Obs, EPHHL, 10 g ae/ha): 20%; % visual injury, Obs ([8]; VIOTR, 10 g ae/ha): 0%; pest or weed control at 10 g/ha [16]: 40%; % visual injury, Obs ([9]; TRZAW, 10 g ae/ha): 0%; % visual injury, Obs ([12]; ZEAMX, 10 g ae/ha): 0%; % visual injury, Obs [17]: 0%
